From the NIST ThermoML archive (doi:10.1021/je400783h)

Settings: for mass density / vapor or sublimation pressure / viscosity / speed of sound: Liquid; for vapor or sublimation pressure: Ebulliometric method (Recirculating still); for surface tension liquid-gas: Drop volume; for viscosity: Capillary tube (Ostwald / Ubbelohde) method; for speed of sound: Pulse-echo method

Cc1ccc(C=O)o1 [5-methylfurfural]
Settings | mass density [kg/m3] | speed of sound [m/s] | viscosity [mPa·s]
313.15 K, 7500 kPa | 1093.64 | – | –
313.15 K, 10000 kPa | 1095.27 | – | –
313.15 K, 20000 kPa | 1101.5 | – | –
313.15 K, 30000 kPa | 1107.37 | – | –
313.15 K, 40000 kPa | 1112.86 | – | –
313.15 K, 50000 kPa | 1118.1 | – | –
313.15 K, 60000 kPa | 1123.12 | – | –
315.65 K, 101.33 kPa | – | 1383.3 | 1.402
318.15 K, 100 kPa | 1083.33 | – | –
318.15 K, 101.33 kPa | – | 1374.3 | 1.345
318.15 K, 2500 kPa | 1085.42 | – | –
318.15 K, 5000 kPa | 1087.05 | – | –
318.15 K, 7500 kPa | 1088.71 | – | –
318.15 K, 10000 kPa | 1090.41 | – | –
318.15 K, 20000 kPa | 1096.72 | – | –
318.15 K, 30000 kPa | 1102.74 | – | –
318.15 K, 40000 kPa | 1108.39 | – | –
318.15 K, 50000 kPa | 1113.73 | – | –
318.15 K, 60000 kPa | 1118.89 | – | –
320.65 K, 101.33 kPa | – | 1365.3 | 1.292
323.15 K, 100 kPa | 1078.33 | – | –
323.15 K, 101.33 kPa | – | 1356.1 | 1.241
323.15 K, 2500 kPa | 1080.39 | – | –
323.15 K, 5000 kPa | 1082.17 | – | –
323.15 K, 7500 kPa | 1083.95 | – | –
323.15 K, 10000 kPa | 1085.56 | – | –
323.15 K, 20000 kPa | 1092.07 | – | –
323.15 K, 30000 kPa | 1098.22 | – | –
323.15 K, 40000 kPa | 1104.01 | – | –
323.15 K, 50000 kPa | 1109.47 | – | –
323.15 K, 60000 kPa | 1114.68 | – | –
325.65 K, 101.33 kPa | – | 1347.3 | 1.202
328.15 K, 100 kPa | 1073.32 | – | –
328.15 K, 101.33 kPa | – | 1338.4 | 1.151
328.15 K, 2500 kPa | 1075.43 | – | –
328.15 K, 5000 kPa | 1077.24 | – | –
328.15 K, 7500 kPa | 1079.03 | – | –
328.15 K, 10000 kPa | 1080.7 | – | –
328.15 K, 20000 kPa | 1087.38 | – | –
328.15 K, 30000 kPa | 1093.64 | – | –
328.15 K, 40000 kPa | 1099.55 | – | –
328.15 K, 50000 kPa | 1105.14 | – | –
328.15 K, 60000 kPa | 1110.48 | – | –
330.65 K, 101.33 kPa | – | 1329.5 | 1.11
333.15 K, 100 kPa | 1068.3 | – | –
333.15 K, 101.33 kPa | – | 1320.5 | 1.072
333.15 K, 2500 kPa | 1070.05 | – | –
333.15 K, 5000 kPa | 1072.29 | – | –
333.15 K, 7500 kPa | 1074.1 | – | –
333.15 K, 10000 kPa | 1075.84 | – | –
333.15 K, 20000 kPa | 1082.66 | – | –
333.15 K, 30000 kPa | 1089.1 | – | –
333.15 K, 40000 kPa | 1095.12 | – | –
333.15 K, 50000 kPa | 1100.86 | – | –
333.15 K, 60000 kPa | 1106.23 | – | –
335.65 K, 101.33 kPa | – | 1311.6 | 1.039
338.15 K, 100 kPa | 1063.25 | – | –
338.15 K, 101.33 kPa | – | 1302.8 | 1.002
338.15 K, 2500 kPa | 1065.43 | – | –
338.15 K, 5000 kPa | 1067.33 | – | –
338.15 K, 7500 kPa | 1069.06 | – | –
338.15 K, 10000 kPa | 1070.99 | – | –
338.15 K, 20000 kPa | 1077.96 | – | –
338.15 K, 30000 kPa | 1084.52 | – | –
338.15 K, 40000 kPa | 1090.69 | – | –
338.15 K, 50000 kPa | 1096.51 | – | –
338.15 K, 60000 kPa | 1102.02 | – | –

Settings | surface tension liquid-gas [mN/m] | vapor or sublimation pressure [kPa]
313.15 K | – | 0.2
315.65 K | 38.44 | –
318.15 K | 38.13 | 0.3
320.65 K | 37.78 | –
323.15 K | 37.51 | 0.4
325.65 K | 37.26 | –
328.15 K | 36.91 | 0.54
330.65 K | 36.54 | –
333.15 K | 36.21 | 0.74
335.65 K | 35.92 | –
338.15 K | 35.57 | 0.97
343.15 K | – | 1.3
348.15 K | – | 1.66
353.15 K | – | 2.17
358.15 K | – | 2.76
363.15 K | – | 3.52
368.15 K | – | 4.4
373.15 K | – | 5.52
378.15 K | – | 6.79
383.15 K | – | 8.43
388.15 K | – | 10.2
393.15 K | – | 12.31
398.15 K | – | 15
403.15 K | – | 18
408.15 K | – | 21.27
413.15 K | – | 25.33
418.15 K | – | 30.01
423.15 K | – | 34.95
428.15 K | – | 40.57
433.15 K | – | 47.43
438.15 K | – | 55.14
443.15 K | – | 63.39
448.15 K | – | 72.37
453.15 K | – | 83.4

101.33 kPa, Vibrating tube method
Settings | mass density [kg/m3]
315.65 K | 1085.82
318.15 K | 1083.33
320.65 K | 1080.83
323.15 K | 1078.33
325.65 K | 1075.83
328.15 K | 1073.32
330.65 K | 1070.81
333.15 K | 1068.3
335.65 K | 1065.78
338.15 K | 1063.25
